Assay results taken from patent US9359371B2, “Bicyclic substituted pyrimidine compounds” (Xuanzhu Pharma Co., Ltd., priority 2012, dated 2016).
Like-named read-outs stand apart in the source and are kept apart here.

Assays:
PDE-5A enzyme = PDE-5A enzyme (Homo sapiens (Human), UniProt O76074); test: Caliper Mobility-Shift PDE-5A Assay; format: biochemical; conditions: Table 1; Avanafil value is the control
Experimental: Experiment 1: Measurement of Enzymatic Activity In Vitro
PDE-5A enzyme: humanized PDE-5 enzyme, SignalChem, Cat#93-31G-20.
Method: enzyme assay, Caliper Mobility-Shift PDE-5A Assay:
The test compound was accurately weighed, dissolved in DMSO, mixed thoroughly and formulated into 10 mM.
(§1) The maximum final concentration of the compound was 10 μM. The plate was incubated at 30° C. for 1 h, and 20 μL of 70 μM EDTA was then added to stop the reaction. 26 μL of solution of each well was transferred to a 384-well plate. The conversion was read on a EZ reader II. The inhibition rate was calculated by the formula below, and used to calculate IC50 by Prism 5.0 Inhibition rate=[Conversion (ZPE)−Conversion (sample)]×100/[Conversion (ZPE)−Conversion (HPE)]
Note: HPE: control without enzyme; ZPE: control without a test compound

[1] = biological target: PDE-5 enzyme (human blood platelets) (Homo sapiens (Human), UniProt O76074); test: PDE-5 enzyme assay, [3H]cGMP; format: biochemical
bovine retinal PDE-6 [2] = biological target: bovine retinal PDE-6 (Bos taurus (Bovine), UniProt P11541+P23439); test: PDE-6 enzyme assay, [3H]cGMP; format: biochemical
Experimental: (§2) Experiment 3: Measurement of Enzyme Activity on PDE-6 Enzyme In Vitro
(§3) Source of enzyme: PDE-6, bovine retinal PDE-6
(§4) Method: The test compound or solvent was incubated at 25° C. for 15 min with enzyme solution (0.2 μg/mL) in Tris-HCl buffer of pH 7.5. 100 μM cGMP and 0.03 μM [^3H] cGMP were then added to activate the reaction. The mixture was incubated for 20 min. The reaction was stopped at 100° C. By addition of snake venom nucleotidase, the product [^3H] GMP was converted into [^3H] Guanosine, which was separated with AG1-X2 resin. The amount of [^3H] Guanosine was measured.

bovine retinal PDE-6 [3] = test: PDE-6 enzyme assay, [3H]cGMP; format: biochemical; conditions: for Selectivity (PDE-6/PDE-5): IC50 for PDE-6/IC50 for PDE-5; for selectivity on PDE-5 enzyme versus PDE-6 (in words): selectivity >70 called high
Experimental: as §2, §3, §4

PDE-11 = PDE-11 (Homo sapiens (Human), UniProt Q9HCR9); test: Caliper Mobility-Shift PDE-11 Assay; format: biochemical; conditions: Table 4; maximum final concentration 10 μM
Experimental: Experiment 4: Measurement of Pharmacological Activity on PDE-11 Enzyme In Vitro
Method: enzyme assay, Caliper Mobility-Shift PDE-11 Assay
The test compound was accurately weighed, dissolved in DMSO, mixed thoroughly and formulated into 10 mM. The above stock solution was diluted to a concentration of 0.5 mM with DMSO, and then was gradiently diluted by a dilution factor of 3.162, resulting in 11 concentrations in total.
as §1, with “To a 96-well plate, 20 μL of 10 μM FL-cGMP as the substrate was added; then 1 μL solution of the compound in DMSO or DMSO solution without compound was added; and then 29 μL of 0.28 ng/μL PDE-11 enzyme buffer (100 mM Hepes pH 7.5, 5 mM MgCl2, 0.002% Brij-35) was added. The maximum” for “The maximum”, “II. The Inhibition rate was” for “II. The inhibition rate was”
Note: HPE: control without enzyme; ZPE: control without compound

[4] = Pharmacokinetics (PK) in SD rats; format: in vivo; conditions: rat; for AUC(0-inf) / half-life / Cmax / Tmax / bioavailability: SD, plasma; for bioavailability: read-out: F % (absolute bioavailability)
Experimental: Experiment 9: Assay of Pharmacokinetics (PK) of the Compounds of the Present Invention in SD Rats
Compound 1-54 of the present invention were prepared by the methods described in Example 1 to Example 54 of the present invention.
The control drug Avanafil, of which the structure was stated above, was purchased commercially.
Collection of the rat's blood: The animal was fixed. The tail was warmed with a water bath 10 min before the collection time. About 200 μL of whole blood was collected from the tail vein. The collected blood was collected into anticoagulant tubes containing heparin sodium. The blood samples were centrifuged at 4° C. by 8000 rpm for 6 min to give the plasma samples, which should be prepared within 30 min after the collection of blood. The plasma samples were stored in a freezer of −80° C. until test.
The result output by Analyst 1.5.1 of AB Company was used as the concentration of the tested sample (plasma sample). The mean value, standard deviation, variable coefficient and the like were calculated by Microsoft Excel (except for the result directly output by Analyst 1.5.1). Parameters of PK were calculated by Pharsight Phoenix 6.2 software. Formula for calculating oral bioavailability: F %=AUCinf−po*Doseiv/AUCinf−iv*Dosepo.

hERG channel = hERG channel (Homo sapiens (Human), UniProt Q12809); test: hERG potassium channel whole-cell patch clamp on CHO-K1 cell line
Description: Experiment 8: Detection of Inhibitory Effect of the Compounds of the Present Invention on hERG Potassium Channel by the Patch Clamp Method
Rapidly activated human delayed rectifying outward potassium current (IKr) is mainly mediated by hERG ion channel and is involved in repolarization of human cardiac muscle cell. Clinically, blocking of the current by a drug is the main cause of QT interval prolongation syndrome, acute arrhythmia and even sudden death. The main purpose of the experiment is to test the blocking effect of the compounds of the present invention on hERG channel, and to determine the half maximal inhibitory concentration (IC50) of the compounds.
The experiment mainly included: (1) recording hERG current by patch clamp technique on CHO-K1 cell line which stably expressed hERG channel; (2) calculating the Inhibition rate of each concentration according to hERG tail current; (3) testing each compound at 5 concentrations to calculate IC50; (4) testing 2 cells at each concentration; (5) a positive control.
The structures and synthesis of Compound 88 (WO-88) and Compound 93 (WO-93) as disclosed in WO200119802A were described in Example 55 and Example 56.
Drug for positive control: Amitriptyline hydrochloride (Sigma-Aldrich, an international standard blocker for hERG channel)
Pippette Solution (in mM): KCl 120, KOH 31.25, CaCl2 5.374, MgCl2 1.75, Ethylene glycol-bis(β-aminoethyl ether)-N,N,N′,N′-tetraacetic acid (EGTA) 10, HEPES 10, Na2-ATP 4, adjusted to a pH of 7.2 with 1N potassium hydroxide; adjusted to an osmotic pressure of 280-290 mOsm; preserved at −20° C. after filtration.
Preparation of compounds: Some of the compounds of the present invention and Amitriptyline hydrochloride as the positive control drug were separately dissolved in 100% DMSO (Merck, 61850125001730), then prepared into stock solutions of 30 mM. Before the experiment, the above stock solutions were diluted with DMSO to a concentration of 1000-fold of the experimental concentration. Then the diluted solutions were further diluted with extracellular solution by 1:1000 to the required experimental concentration. The final concentration of DMSO in the extracellular solution was kept as 0.1%.
Stable cell line CHO-hERG was purchased from AVIVA Company. The hERG current on the cell line was recorded. For the purpose of quality control, the smallest seal resistance was no less than 500 MΩ, and the hERG current was no less than 0.4 nA.
The hERG current was recorded by a whole-cell patch clamp technique. Cell suspension was added into a 35-mm culture dish. The culture dish was placed on the objective table of an inverted microscope. Upon cell attachment, perfusion was conducted with the extracellular solution at a flow rate of 1-2 mL/min.
Glass microelectrode with the pipette tip resistance of 2-5 MΩ was controlled by a microelectrode puller via a two-step process. After the whole-cell record was set up, the clamp potential was kept at −80 mV. The cell was depolarized to +60 mV by applying a voltage stimulus, and then repolarized to −50 mV to obtain the hERG tail current. Recordation was conducted after the current was stable. The extracellular perfusion was started from the lowest concentration, with 5-10 min for each concentration until the current was stable, and then conducted with the next concentration.
Stimulus payment and signal collection were performed by A/D-D/A conversion using Digidata 1440 (Molecular Devices) and pCLAMP software (Version 10.2, Molecular Devices). Signal amplification was performed on a patch clamp amplifier (Multiclamp 700B, Molecular Devices), with a filter of 1 KHz. Further data analysis and curve fitting were conducted by Clampfit (version 10.2, Molecular Devices) and Prism. The data were presented as mean value±standard deviation.
In the process of data analysis, the peak value and the baseline of the tail current were corrected when determining the blocking effect on hERG.

[5] = Table 2, human blood platelet enzyme, read-out: IC50 on PDE-5
[6] = Table 4-1, read-out: PDE-5 (IC50 nM)
[7] = Table 3, read-out: IC50 on PDE-6
[8] = Table 4-1, read-out: PDE-6 (IC50 nM)
[9] = po, intragastric administration, 5 mg/kg
[10] = po, intragastric administration, 1 mg/kg

bovine retinal PDE-6 (Bos taurus (Bovine), UniProt P11541+P23439), sequence (P11541 whole entry, looked up): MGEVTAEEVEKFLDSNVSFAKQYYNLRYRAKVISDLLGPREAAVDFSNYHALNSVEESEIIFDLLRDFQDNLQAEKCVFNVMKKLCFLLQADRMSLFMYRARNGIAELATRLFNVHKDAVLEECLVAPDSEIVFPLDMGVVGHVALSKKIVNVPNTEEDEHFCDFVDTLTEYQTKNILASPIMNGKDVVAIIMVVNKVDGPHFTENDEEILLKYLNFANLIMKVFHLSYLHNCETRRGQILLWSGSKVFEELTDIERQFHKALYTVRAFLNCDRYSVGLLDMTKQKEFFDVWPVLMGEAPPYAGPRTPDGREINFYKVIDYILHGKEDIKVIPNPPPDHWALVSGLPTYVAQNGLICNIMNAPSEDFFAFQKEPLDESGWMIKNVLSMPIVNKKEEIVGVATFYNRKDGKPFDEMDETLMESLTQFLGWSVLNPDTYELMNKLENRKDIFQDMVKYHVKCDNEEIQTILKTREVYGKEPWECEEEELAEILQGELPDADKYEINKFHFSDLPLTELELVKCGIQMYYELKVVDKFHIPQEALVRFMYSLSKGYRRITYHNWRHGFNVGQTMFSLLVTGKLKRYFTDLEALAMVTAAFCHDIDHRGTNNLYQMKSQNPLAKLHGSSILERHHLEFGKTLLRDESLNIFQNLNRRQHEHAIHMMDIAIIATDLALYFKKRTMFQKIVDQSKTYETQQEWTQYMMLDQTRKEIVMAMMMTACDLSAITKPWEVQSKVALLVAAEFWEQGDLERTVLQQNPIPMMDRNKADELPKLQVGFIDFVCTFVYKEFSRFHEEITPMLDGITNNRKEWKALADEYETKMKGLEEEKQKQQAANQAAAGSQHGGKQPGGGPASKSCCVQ
bovine retinal PDE-6 (Bos taurus (Bovine), UniProt P11541+P23439), sequence (P23439 whole entry, looked up): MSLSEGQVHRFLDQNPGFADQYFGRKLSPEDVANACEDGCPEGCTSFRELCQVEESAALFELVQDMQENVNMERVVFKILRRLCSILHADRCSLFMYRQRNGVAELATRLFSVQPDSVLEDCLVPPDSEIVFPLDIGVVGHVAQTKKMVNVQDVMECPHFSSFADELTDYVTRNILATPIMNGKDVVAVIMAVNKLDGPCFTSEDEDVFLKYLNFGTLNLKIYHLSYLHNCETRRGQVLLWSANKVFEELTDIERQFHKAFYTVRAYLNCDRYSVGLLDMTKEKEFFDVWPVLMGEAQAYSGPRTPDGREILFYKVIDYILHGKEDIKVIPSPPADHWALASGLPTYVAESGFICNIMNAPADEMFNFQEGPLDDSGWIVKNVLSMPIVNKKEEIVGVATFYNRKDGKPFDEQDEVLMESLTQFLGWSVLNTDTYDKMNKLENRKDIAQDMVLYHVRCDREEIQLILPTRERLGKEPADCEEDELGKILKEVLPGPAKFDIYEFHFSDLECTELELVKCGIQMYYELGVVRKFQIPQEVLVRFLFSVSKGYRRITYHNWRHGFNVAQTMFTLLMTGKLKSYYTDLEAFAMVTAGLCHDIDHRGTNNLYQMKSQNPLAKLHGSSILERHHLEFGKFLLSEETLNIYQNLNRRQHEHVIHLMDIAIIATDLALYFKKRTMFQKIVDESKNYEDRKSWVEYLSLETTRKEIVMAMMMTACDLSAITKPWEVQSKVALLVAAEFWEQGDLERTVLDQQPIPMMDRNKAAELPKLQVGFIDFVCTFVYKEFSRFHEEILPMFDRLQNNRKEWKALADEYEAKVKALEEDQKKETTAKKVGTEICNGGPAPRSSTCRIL
hERG channel, sequence (Q12809 whole entry): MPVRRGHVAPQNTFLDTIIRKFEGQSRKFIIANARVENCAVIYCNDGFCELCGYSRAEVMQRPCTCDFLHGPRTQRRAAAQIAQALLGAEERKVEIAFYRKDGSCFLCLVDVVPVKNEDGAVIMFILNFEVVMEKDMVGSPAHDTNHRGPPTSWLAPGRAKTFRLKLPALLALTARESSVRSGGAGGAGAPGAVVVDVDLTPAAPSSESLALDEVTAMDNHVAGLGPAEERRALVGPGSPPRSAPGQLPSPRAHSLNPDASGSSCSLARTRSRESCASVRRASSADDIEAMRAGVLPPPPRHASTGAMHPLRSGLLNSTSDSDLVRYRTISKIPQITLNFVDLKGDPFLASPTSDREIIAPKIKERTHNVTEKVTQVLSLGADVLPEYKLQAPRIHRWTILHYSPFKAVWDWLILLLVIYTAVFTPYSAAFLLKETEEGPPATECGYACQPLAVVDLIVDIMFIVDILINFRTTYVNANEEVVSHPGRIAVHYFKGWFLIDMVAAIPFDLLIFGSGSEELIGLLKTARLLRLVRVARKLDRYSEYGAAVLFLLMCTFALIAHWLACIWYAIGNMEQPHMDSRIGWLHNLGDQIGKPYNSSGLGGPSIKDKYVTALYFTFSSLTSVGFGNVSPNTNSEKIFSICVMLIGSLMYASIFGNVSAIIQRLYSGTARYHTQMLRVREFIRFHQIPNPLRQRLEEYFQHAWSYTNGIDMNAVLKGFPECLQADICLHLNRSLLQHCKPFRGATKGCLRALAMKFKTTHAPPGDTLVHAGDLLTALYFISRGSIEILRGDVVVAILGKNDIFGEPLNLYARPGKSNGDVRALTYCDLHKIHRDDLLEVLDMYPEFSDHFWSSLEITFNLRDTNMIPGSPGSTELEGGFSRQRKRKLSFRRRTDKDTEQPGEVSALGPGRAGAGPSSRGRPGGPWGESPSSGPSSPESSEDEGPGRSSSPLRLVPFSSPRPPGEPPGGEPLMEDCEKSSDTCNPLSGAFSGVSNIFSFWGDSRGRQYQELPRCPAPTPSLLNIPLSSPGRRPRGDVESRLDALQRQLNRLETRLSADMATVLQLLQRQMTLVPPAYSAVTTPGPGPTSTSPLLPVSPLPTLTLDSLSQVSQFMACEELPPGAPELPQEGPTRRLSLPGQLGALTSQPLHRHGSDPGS
PDE-11, sequence (Q9HCR9 whole entry): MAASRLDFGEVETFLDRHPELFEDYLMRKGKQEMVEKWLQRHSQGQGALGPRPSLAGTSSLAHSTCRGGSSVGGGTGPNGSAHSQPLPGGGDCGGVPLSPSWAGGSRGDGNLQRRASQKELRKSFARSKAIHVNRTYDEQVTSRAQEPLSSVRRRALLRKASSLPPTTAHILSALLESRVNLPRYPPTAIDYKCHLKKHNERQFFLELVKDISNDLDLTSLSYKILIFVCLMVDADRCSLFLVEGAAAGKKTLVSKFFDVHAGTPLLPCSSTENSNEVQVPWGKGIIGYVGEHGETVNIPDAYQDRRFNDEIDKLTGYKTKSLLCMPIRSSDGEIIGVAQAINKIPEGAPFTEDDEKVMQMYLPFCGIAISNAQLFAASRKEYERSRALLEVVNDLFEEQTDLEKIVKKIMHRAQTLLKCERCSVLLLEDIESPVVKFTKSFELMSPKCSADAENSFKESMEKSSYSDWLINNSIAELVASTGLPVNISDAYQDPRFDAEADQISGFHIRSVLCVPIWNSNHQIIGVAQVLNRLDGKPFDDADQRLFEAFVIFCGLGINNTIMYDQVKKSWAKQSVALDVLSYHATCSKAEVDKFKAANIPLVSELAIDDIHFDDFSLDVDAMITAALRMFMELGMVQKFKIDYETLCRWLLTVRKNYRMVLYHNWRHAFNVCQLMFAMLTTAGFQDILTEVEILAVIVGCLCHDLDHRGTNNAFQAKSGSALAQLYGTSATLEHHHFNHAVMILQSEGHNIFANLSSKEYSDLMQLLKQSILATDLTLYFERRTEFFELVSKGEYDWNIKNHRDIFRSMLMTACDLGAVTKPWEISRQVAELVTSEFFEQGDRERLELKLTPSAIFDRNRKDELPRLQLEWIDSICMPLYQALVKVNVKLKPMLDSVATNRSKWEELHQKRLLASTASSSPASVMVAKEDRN

Row | SMILES | IC50 [1, 5] | IC50 [1, 6] | IC50 (bovine retinal PDE-6 [2]; [7]) | IC50 (bovine retinal PDE-6 [2]; [8]) | Selectivity (PDE-6/PDE-5) (bovine retinal PDE-6 [3]) | AUC(0-inf) ([4]; intravenous injection, 1 mg/kg) | half-life ([4]; intravenous injection, 1 mg/kg) | Cl_obs ([4]; intravenous injection, 1 mg/kg) | Vss_obs ([4]; intravenous injection, 1 mg/kg) | selectivity on PDE-5 enzyme versus PDE-6 (in words) (bovine retinal PDE-6 [3]) | IC50 (hERG channel) | AUC(0-inf) [4, 9] | Cmax [4, 9] | Tmax [4, 9] | half-life [4, 9] | bioavailability [4, 9] | AUC(0-inf) ([4]; intravenous injection, 2 mg/kg) | half-life ([4]; intravenous injection, 2 mg/kg) | Cl_obs ([4]; intravenous injection, 2 mg/kg) | Vss_obs ([4]; intravenous injection, 2 mg/kg) | further results
1 | COc1ccc(CNc2nc(N3CCC4(CC4)C3)ncc2C(=O)NCCN2CCN(C)CC2)cc1Cl [Compound 46, 4-((3-chloro-4-methoxybenzyl)amino)-N-(2-(4-methylpiperazin-1-yl)ethyl)-2-(5-azaspiro[2.4]heptan-5-yl)pyrimidine-5-formamide] | 0.31 nM | 0.31 nM | 310 nM | 310 nM | 1000 | 214 ng·h/mL | 13.9 h | 79 mL/min/kg | 86.40 L/kg | – | – | – | – | – | – | – | – | – | – | – | IC50 (PDE-5A enzyme): 14.9 nM; IC50 (PDE-11): > 10000 nM
2 | COc1ccc(CNc2nc(N3CC4CC4C3)ncc2C(=O)N[C@H]2CC[C@H](O)CC2)cc1F (stereo partly drawn) [Compound 48, 2-(3-azabicyclo[3.1.0]hexan-3-yl)-4-((3-fluoro-4-methoxybenzyl)amino)-N-(trans-4-hydroxycyclohexyl)pyrimidine-5-formamide] | 7.99 nM | 7.99 nM | 1110 nM | 1110 nM | 140 | – | – | – | – | higher selectivity on PDE-5 enzyme than to PDE-6 | 8760 nM | 2330 ng·h/mL | 415 ng/mL | 2 h | 2 h | 63% | 2060 ng·h/mL | 4.4 h | 17 mL/min/kg | 4.59 L/kg | inhibitory effect on hERG channel (in words) (hERG channel): slight inhibitory effect
3 | COc1ccc(CNc2nc(N3CC4CC4C3)ncc2C(=O)N[C@H]2CC[C@H](O)CC2)cc1C (stereo partly drawn) [Compound 50, 2-(3-azabicyclo[3.1.0]hexan-3-yl)-N-((trans)-4-hydroxycyclohexyl)-4-((4-methoxy-3-methylbenzyl)amino)pyrimidine-5-formamide] | 7.72 nM | 7.72 nM | 660 nM | 660 nM | 85 | – | – | – | – | higher selectivity on PDE-5 enzyme than to PDE-6 | > 30000 nM | 4720 ng·h/mL | 377 ng/mL | 6 h | 5.4 h | 65% | 2580 ng·h/mL | 4.1 h | 13 mL/min/kg | 4.48 L/kg | inhibitory effect on hERG channel (in words) (hERG channel; human, CHO-K1 cells stably expressing hERG channel, pH 7.4): none of Compound 3, 11 and 50 of the present invention had a significant inhibitory effect
4 | COc1ccc(CNc2nc(N3CCC[C@H]3CO)ncc2C(=O)N[C@H]2CC[C@H](O)CC2)cc1Cl [WO-88, N-((trans)-4-hydroxylcyclohexan-1-yl)-4-((3-chloro-4-methoxybenzyl)amino)-2-((s)-2-(hydroxymethyl)tetrahydropyrrole-1-yl)-5-pyrimidine formamide, reference compound] | – | – | – | – | – | 347 ng·h/mL | 1 h | 48.3 mL/min/kg | 3.6 L/kg | – | > 30000 nM | – | – | – | – | – | – | – | – | – | IC50 [1]: 0.59 nM; AUC(0-inf) [4, 10]: 63 ng·h/mL; Cmax [4, 10]: 29 ng/mL; Tmax [4, 10]: 0.5 h; half-life [4, 10]: 2.8 h; bioavailability [4, 10]: 23%
5 | COc1ccc(CNc2nc(N3Cc4cccnc4C3)ncc2C(=O)N[C@H]2CC[C@H](O)CC2)cc1Cl [WO-93, N-(trans-4-hydroxycyclohexan-1-yl)-4-((3-chloro-4-methoxybenzyl)amino)-2-(5H-pyrrolo[3,4-b]pyridin-6(7H)yl)-5-pyrimidine formamide, reference compound] | – | – | – | – | – | 709 ng·h/mL | 2.6 h | 25 mL/min/kg | 5.0 L/kg | – | > 30000 nM | – | – | – | – | – | – | – | – | – | AUC(0-inf) [4, 10]: 89 ng·h/mL; Cmax [4, 10]: 15 ng/mL; Tmax [4, 10]: 4 h; half-life [4, 10]: 2.8 h; bioavailability [4, 10]: 16%
